Laboratory results as given in PubChem BioAssay (NCI).
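A five-concentration, 48-hour dose response in 96-well plates underlies each endpoint, interpolated linearly between surrounding concentrations. GI50 marks 50% less growth. TGI: concentration producing complete growth inhibition.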

Columns and labels:
Experiment in all cases: inhibition of tumour cell growth, NCI panel, 48 h
SF-268 CNS = system: SF-268 CNS
SW-620 colon = system: SW-620 colon
HCT-15 colon = system: HCT-15 colon
U251 CNS = system: U251 CNS
HOP-62 NSCLC = system: HOP-62 NSCLC
M14 melanoma = system: M14 melanoma
SK-MEL-5 melanoma = system: SK-MEL-5 melanoma
MALME-3M melanoma = system: MALME-3M melanoma
PC-3 prostate = system: PC-3 prostate
UO-31 renal = system: UO-31 renal

| Compound | TGI (SF-268 CNS) [µM] | TGI (SW-620 colon) [µM] | TGI (HCT-15 colon) [µM] | TGI (U251 CNS) [µM] | TGI (HOP-62 NSCLC) [µM] | TGI (M14 melanoma) [µM] | TGI (SK-MEL-5 melanoma) [µM] | TGI (MALME-3M melanoma) [µM] | TGI (PC-3 prostate) [µM] | TGI (UO-31 renal) [µM] | GI50 (SF-268 CNS) [µM] | GI50 (SW-620 colon) [µM] | GI50 (HCT-15 colon) [µM] | GI50 (U251 CNS) [µM] | GI50 (SK-MEL-5 melanoma) [µM] | GI50 (MALME-3M melanoma) [µM] | GI50 (PC-3 prostate) [µM] | GI50 (UO-31 renal) [µM] | GI50 (HOP-62 NSCLC) [µM] | GI50 (M14 melanoma) [µM] |
| --- | --- | --- | --- | --- | --- | --- | --- | --- | --- | --- | --- | --- | --- | --- | --- | --- | --- | --- | --- | --- |
| Cc1ncc(CO)c(CN)c1O | > 100 | > 100 | > 100 | > 100 | > 100 | > 100 | > 100 | > 100 | > 100 | > 100 |  |  |  |  |  |  |  |  |  |  |
| CN(C)CCNC(=O)c1cccc2nc3c4ccccc4c4ccccc4c3nc12 | 0.632 | 6.59 | 3.13 | 4.56 | 34.2 | 4.97 | 15.7 | 3.6 | 3.05 | 22.9 |  |  |  |  |  |  |  |  |  |  |
| COc1cc2c(cc1OC)C(Cl)C(c1ccc(Cl)cc1)=C2Cl (centres undefined) |  | 52 | 41.4 | 26.6 |  | 33.6 | 28.3 | 56.8 |  | 32.6 |  |  |  |  |  |  |  |  |  |  |
| CCN(CC)Cc1ccc2cccnc2c1O | > 100 | > 100 | 18.5 | > 100 | 65.4 |  | > 100 | > 100 | > 100 | > 100 |  |  |  |  |  |  |  |  |  |  |
| C[C@@H]1CC[C@H]2C(COC/C=C/COCC3=C(C(F)(F)F)O[C@@H]4O[C@@]5(C)CC[C@H]6[C@H](C)CC[C@@H]3[C@@]46OO5)=C(C(F)(F)F)O[C@@H]3O[C@@]4(C)CC[C@@H]1[C@]32OO4 | > 100 | > 100 | 14.2 | 0.179 | > 100 | > 100 | > 100 | 0.0445 |  | > 100 | 0.0846 | 0.0101 | 0.038 | < 0.01 | 0.0866 | < 0.01 | < 0.01 | 0.786 |  |  |
| O=C(c1cc(Br)ccc1O)c1cc(Br)ccc1O | 42.4 | 30.6 | 38.5 | 28.8 | 34.3 | 29.1 | 25.4 | 31.6 | 30.8 | 27.4 |  |  |  |  |  |  |  |  |  |  |
| Cn1cnc([N+](=O)[O-])c1SCC(=O)O | > 100 | > 100 | > 100 | > 100 | > 100 | > 100 | > 100 | > 100 | > 100 | > 100 |  |  |  |  |  |  |  |  |  |  |
| Oc1cc(O)cc(/C=C/c2ccc(O)c(O)c2)c1 | 56.3 | > 51.8 | > 100 | 42.8 | 28.7 |  | > 49.1 | > 100 |  | 39.3 |  |  |  |  |  |  |  |  |  |  |
| NCS(=O)(=O)O | > 100 | > 100 | > 100 | > 100 | > 100 | > 100 | > 100 | > 100 | > 100 | > 100 |  |  |  |  |  |  |  |  |  |  |
| COc1cc2ccc1-c1cc(ccc1O)CC1c3cc4c(cc3CCN1C)Oc1c(OC)cc3c(c1O4)C(C2)N(C)CC3 (centres undefined) | 3.52 | 3.31 | 3.12 | 3.07 | 3.65 | 3.32 | 3.52 | 3.48 |  | 3.27 |  |  |  |  |  |  |  |  |  |  |
| O=C(CC1(O)C(=O)Nc2ccc(Br)cc21)c1ccc(C(=O)NCC2CCC3(CC2)OOC2(CCCCC2)OO3)cc1 (centres undefined) | 36.5 | 13 | 34.3 | 6.51 | 40.7 | 63.4 | 7.09 | 6.63 | 22.3 |  | 6.16 | 2.76 | 4.59 | 2.24 | 2.4 | 2.47 | 2.64 |  | 11 | 8.68 |
| COc1cnc2c(c1)C(=O)c1c-2n(CCCN2CCNCC2)c(=O)c2cc(Cl)ccc12 | 2.63 | 1.82 |  |  |  |  |  |  |  | 2.41 | 1.07 | 0.0856 |  |  |  |  |  | 1.03 |  |  |
| c1ccc2c[n+](CCCCCCCCCC[n+]3ccc4ccccc4c3)ccc2c1 | > 10 | > 10 | > 10 | > 10 | > 10 | > 10 | > 10 | > 10 | > 10 | > 10 |  |  |  |  |  |  |  |  |  |  |
| O=C1c2ccccc2C(=O)c2c(NCCNC(=O)C3CCCN3)ccc(NCCNC(=O)C3CCCN3)c21 (centres undefined) | > 100 | > 100 | > 100 | > 100 | > 100 | > 100 | > 100 | > 100 | > 100 | > 100 |  |  |  |  |  |  |  |  |  |  |
| Cc1ccc(C)c(/C(=N\N=C(N)N)C2CC2)c1 | > 100 | > 100 | > 100 | 36.2 | > 100 | > 100 | > 100 | > 100 | > 100 | > 100 |  |  |  |  |  |  |  |  |  |  |
| CCOC(=O)c1c2c(c(O)c3ccccc3c(O)n(-c3ccc(C)cc3)c1C)C(=O)C=CC2=O | > 100 | 51.5 | 34.7 | 52.9 | 61.7 | 44.8 | 31.9 | 37.4 | > 100 | > 100 |  |  |  |  |  |  |  |  |  |  |
| O=C(CSCC(=O)N/N=C/c1cccc(OCc2ccccc2)c1)N/N=C/c1cccc(OCc2ccccc2)c1 | > 100 | > 100 | > 100 | > 100 | > 100 | > 100 | > 92.8 | > 100 | 97.8 | > 100 |  |  |  |  |  |  |  |  |  |  |
| Cc1c2ccnc(-c3ccccc3)c2cc2c1[nH]c1ccccc12 | 32.9 | 46.9 | 9.62 | 7.76 | 6.61 |  | 2.78 | 9.31 |  | 4.29 |  |  |  |  |  |  |  |  |  |  |
| CC(C)CNc1nc(N)[nH]c(=O)c1NC=O | > 100 | > 100 | > 100 | > 100 | > 100 | > 100 | > 100 | > 100 | > 100 | > 100 |  |  |  |  |  |  |  |  |  |  |
| N=C(N)c1ccc(-c2ccc(-c3ccc(Cl)cn3)s2)cc1 | 39.3 |  | 3.08 |  |  | 3.24 | 3.19 | 3.14 | 3.17 | 3.07 | 9.67 |  | 1.61 |  | 1.77 | 1.68 | 1.65 | 1.68 |  | 1.77 |
| CN(C)c1ccc2nc3c(C(=O)O)cc(=O)c(O)c-3oc2c1 | > 100 | > 100 | > 100 | > 100 | > 100 | 49.8 | 29.3 | 31.7 | > 100 | 80.1 |  |  |  |  |  |  |  |  |  |  |
| CN(C)c1ccc(C2CC(=O)C(C#N)=C(c3ccccc3)NN2C)cc1 (centres undefined) | > 100 | > 100 | 32.5 | > 100 | 62.5 | 35.5 | 11.9 | > 100 |  |  |  |  |  |  |  |  |  |  |  |  |
